# Data taken from ChEMBL document CHEMBL1201862, “PubChem BioAssay data set” (2004).
# The source made the active and inactive calls.
# Tests used:
# [1] = Luminescence Cell-Based Dose Retest to Confirm Inhibitors of Cancer Stem Cells. [Related pubchem assays (depositor defined):AID2717, AID2721]; assay type: functional; conditions: Homo sapiens
# [2] = target: T1, Heat shock factor protein 1 (Mus musculus, UniProt P38532); experiment: HSF1 potentiators in luciferase reporter cells, confirmation, cell-based, NIH3T3, luminescence, dose retest (AID 435004); assay type: functional;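 note: stress induced by proteasome inhibitor MG132 added 30 min after compound; luciferase reporter driven by HSF1 response element in NIH3T3 cells; actives raise luminescence as potentiators of the MG132 stress response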
# T1 sequence (P38532 whole entry): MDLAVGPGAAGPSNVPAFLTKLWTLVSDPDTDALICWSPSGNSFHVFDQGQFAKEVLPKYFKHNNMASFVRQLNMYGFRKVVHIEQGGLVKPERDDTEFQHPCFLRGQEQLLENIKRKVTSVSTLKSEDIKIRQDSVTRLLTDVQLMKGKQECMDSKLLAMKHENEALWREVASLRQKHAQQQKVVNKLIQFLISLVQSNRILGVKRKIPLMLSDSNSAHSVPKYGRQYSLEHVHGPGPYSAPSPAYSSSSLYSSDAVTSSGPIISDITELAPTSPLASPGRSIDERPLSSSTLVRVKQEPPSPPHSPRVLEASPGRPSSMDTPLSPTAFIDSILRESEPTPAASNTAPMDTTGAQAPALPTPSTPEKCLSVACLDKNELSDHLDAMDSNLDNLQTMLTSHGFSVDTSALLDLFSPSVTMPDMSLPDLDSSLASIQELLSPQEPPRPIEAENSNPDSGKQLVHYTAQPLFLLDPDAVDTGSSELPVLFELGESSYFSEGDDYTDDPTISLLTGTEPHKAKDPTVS
# [3] = target: T2, Microphthalmia-associated transcription factor (Homo sapiens, UniProt O75030); experiment: TRPM1 promoter luciferase signal decrease, dose response, MITF inhibitor project, cell-based, SK-MEL-5, cherry-picked, set 3 (AID 493073); assay type: functional
# T2 sequence (O75030 whole entry): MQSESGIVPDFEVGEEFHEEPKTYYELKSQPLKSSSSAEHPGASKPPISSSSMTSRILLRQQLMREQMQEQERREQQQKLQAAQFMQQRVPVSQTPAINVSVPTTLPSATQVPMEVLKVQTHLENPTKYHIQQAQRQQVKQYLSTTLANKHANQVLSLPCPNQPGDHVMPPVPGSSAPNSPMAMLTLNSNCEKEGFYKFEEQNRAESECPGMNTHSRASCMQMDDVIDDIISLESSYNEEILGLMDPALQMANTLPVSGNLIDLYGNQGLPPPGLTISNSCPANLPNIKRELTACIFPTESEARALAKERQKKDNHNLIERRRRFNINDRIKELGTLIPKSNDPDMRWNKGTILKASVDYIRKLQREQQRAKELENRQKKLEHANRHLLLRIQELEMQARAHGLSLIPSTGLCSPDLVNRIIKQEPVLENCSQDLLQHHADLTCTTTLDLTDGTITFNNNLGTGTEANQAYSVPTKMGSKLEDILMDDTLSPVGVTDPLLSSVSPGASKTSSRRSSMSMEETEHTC
# [4] = target: T3, Replicative DNA helicase DnaB (Mycobacterium tuberculosis, UniProt P9WMR3); experiment: DnaB intein splicing inhibitors, dose response, biochemical, cell-free fluorescence (AID 449749); assay type: functional
# T3 sequence (P9WMR3 whole entry): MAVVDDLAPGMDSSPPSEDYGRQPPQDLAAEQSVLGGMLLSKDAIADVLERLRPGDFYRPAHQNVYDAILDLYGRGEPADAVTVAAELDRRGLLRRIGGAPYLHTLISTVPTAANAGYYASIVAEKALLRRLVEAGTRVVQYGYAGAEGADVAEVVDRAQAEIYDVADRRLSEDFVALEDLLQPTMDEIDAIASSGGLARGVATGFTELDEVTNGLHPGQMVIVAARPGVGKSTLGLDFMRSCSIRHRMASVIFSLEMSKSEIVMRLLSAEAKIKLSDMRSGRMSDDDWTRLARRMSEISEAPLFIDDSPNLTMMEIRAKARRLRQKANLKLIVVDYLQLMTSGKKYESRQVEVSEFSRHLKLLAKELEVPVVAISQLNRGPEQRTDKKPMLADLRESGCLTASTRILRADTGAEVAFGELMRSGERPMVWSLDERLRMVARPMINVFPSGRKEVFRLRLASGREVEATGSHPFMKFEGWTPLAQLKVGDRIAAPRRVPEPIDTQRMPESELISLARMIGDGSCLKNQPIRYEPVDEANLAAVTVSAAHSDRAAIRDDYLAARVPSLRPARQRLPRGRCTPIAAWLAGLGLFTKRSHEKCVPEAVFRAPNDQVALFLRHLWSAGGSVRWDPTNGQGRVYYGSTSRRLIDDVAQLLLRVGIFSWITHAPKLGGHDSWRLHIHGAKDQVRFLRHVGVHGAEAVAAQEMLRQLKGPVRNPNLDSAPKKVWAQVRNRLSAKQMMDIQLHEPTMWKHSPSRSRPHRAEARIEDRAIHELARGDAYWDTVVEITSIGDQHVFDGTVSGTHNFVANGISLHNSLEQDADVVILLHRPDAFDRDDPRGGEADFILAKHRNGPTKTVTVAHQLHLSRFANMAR
# Protein RecA = target: T4, Protein RecA (Mycobacterium tuberculosis, UniProt P9WHJ3); experiment: Fluorescence Cell-Free Homogeneous Dose Retest to Identify Inhibitors of RecA-Intein Splicing Activity. [Related pubchem assays (depositor defined):AID2097, AID2223, AID489010, AID492950]; assay type: functional
# T4 sequence (P9WHJ3 whole entry): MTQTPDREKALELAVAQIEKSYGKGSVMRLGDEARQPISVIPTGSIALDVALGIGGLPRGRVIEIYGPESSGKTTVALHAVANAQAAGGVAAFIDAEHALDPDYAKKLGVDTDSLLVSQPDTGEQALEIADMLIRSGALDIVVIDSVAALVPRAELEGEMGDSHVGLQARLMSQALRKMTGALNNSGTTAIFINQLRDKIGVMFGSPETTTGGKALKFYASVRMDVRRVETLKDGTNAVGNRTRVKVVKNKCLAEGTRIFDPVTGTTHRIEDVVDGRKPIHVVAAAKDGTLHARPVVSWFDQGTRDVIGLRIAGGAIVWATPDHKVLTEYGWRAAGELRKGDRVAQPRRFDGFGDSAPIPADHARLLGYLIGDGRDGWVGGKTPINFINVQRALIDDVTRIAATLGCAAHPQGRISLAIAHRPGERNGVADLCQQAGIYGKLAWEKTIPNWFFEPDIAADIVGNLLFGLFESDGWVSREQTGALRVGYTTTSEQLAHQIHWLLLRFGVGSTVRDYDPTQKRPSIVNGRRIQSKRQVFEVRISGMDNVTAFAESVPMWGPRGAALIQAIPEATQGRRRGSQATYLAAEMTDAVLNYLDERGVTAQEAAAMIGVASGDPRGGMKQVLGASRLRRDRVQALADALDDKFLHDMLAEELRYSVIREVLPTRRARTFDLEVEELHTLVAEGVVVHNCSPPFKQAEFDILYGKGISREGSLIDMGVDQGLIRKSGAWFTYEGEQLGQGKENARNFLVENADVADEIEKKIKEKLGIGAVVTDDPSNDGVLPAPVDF
# [5] = target: T5, High affinity choline transporter 1 (Homo sapiens, UniProt Q9GZV3); experiment: CHT inhibitors, dose response, cell-based, 5-point CRC, membrane potential dye (AID 504840); assay type: functional
# T5 sequence (Q9GZV3 whole entry): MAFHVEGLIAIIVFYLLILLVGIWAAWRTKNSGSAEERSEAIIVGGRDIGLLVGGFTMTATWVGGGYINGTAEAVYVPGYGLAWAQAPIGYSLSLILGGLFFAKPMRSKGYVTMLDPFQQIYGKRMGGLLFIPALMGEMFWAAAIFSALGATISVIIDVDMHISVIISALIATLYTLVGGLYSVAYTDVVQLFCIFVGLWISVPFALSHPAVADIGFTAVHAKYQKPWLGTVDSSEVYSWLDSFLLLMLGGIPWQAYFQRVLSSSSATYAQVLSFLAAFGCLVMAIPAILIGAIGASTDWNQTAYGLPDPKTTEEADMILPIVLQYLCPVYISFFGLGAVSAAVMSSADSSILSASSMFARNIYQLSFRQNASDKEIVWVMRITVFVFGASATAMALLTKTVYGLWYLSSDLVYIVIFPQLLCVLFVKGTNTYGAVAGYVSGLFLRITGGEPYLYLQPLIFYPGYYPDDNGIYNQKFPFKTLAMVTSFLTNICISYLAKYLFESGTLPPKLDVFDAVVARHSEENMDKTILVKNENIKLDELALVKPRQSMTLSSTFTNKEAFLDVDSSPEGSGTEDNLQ
# [6] = microbe, parasite or virus in culture; assay type: functional; conditions: Mycobacterium tuberculosis
# cells [7] = assay type: functional
# BJ [8] = experiment: cytotoxicity toward BJ-TERT fibroblasts, dose response, cell-based, RAS-independent, luminescence (AID 1933); assay type: functional; conditions: Homo sapiens
# cells [9] = assay type: functional, cell-based
# BJ [10] = experiment: cells; assay type: functional, cell-based; conditions: Homo sapiens
# cells [11] = assay type: functional, cell-based; remark: listed apart in the source
# BJ [12] = experiment: cytotoxicity toward BJ-TERT-LT-ST fibroblasts, dose response, cell-based, RAS-independent, luminescence (AID 1935); assay type: functional; conditions: Homo sapiens;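 note: BJ fibroblasts immortalized with TERT plus LT and ST oncogenes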
# [13] = cytotoxicity toward DRD oncogenic fibroblasts, dose response, cell-based, non-viral oncogenic, luminescence (AID 1934); assay type: functional; conditions: Homo sapiens
# [14] = target: Heat shock protein HSP 90-alpha (Homo sapiens, UniProt P07900); assay type: functional, organism-based
# INS1 = experiment: beta cell apoptosis inhibitors, cytokine rescue, dose response, luminescence, retest (AID 449756); assay type: functional, cell-based; conditions: Rattus norvegicus;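 note: cell death triggered by IL-1 beta plus TNF-alpha plus IFN-gamma mixture; protective hits raise ATP signal compared with cytokine alone wells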
# [15] = target: T6, Polyadenylate-binding protein 1 (Homo sapiens, UniProt P11940); experiment: PABP1 MLLE–PAM2 interaction inhibitors, dose response, miRNA deadenylation inhibitor project, biochemical, fluorescence polarization, Cy5-PAM2 peptide, secondary (AID 602260); assay type: functional; conditions: read-out: IC50_Mean
# T6 sequence (P11940 whole entry): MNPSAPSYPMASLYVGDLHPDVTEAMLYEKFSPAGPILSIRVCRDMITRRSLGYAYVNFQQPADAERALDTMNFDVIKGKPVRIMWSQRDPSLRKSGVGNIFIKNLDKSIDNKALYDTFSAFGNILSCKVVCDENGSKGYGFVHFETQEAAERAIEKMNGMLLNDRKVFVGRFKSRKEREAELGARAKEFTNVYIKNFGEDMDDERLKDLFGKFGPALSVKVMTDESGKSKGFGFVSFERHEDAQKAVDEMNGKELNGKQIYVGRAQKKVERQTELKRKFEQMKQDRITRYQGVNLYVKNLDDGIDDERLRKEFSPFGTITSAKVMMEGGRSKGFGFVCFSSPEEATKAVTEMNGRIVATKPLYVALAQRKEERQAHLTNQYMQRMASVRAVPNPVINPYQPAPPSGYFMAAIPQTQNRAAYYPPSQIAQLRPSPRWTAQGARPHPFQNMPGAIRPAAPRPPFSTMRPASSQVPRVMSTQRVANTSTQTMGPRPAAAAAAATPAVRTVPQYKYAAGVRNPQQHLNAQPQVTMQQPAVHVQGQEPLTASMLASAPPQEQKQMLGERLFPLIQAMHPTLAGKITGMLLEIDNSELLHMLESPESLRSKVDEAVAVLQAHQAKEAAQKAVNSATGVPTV
# [16] = target: T6, Polyadenylate-binding protein 1; experiment: PABP1 MLLE–PAM2 binding inhibitor potency, dose response, biochemical, fluorescence polarization, FITC-PAM2 peptide (AID 602259); assay type: functional; conditions: read-out: IC50_Mean
# Paired box protein Pax-8 = Paired box protein Pax-8 (Homo sapiens, UniProt Q06710); experiment: inhibitors of PAX8-driven TPO luciferase reporter, dose response, RMG-I cells, cherry-pick (AID 687027); assay type: functional, cell-based;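 note: luciferase reporter driven by Pax8 target thyroperoxidase promoter measured by SteadyGlo luminescence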
# Paired box protein Pax-8, sequence (Q06710 whole entry): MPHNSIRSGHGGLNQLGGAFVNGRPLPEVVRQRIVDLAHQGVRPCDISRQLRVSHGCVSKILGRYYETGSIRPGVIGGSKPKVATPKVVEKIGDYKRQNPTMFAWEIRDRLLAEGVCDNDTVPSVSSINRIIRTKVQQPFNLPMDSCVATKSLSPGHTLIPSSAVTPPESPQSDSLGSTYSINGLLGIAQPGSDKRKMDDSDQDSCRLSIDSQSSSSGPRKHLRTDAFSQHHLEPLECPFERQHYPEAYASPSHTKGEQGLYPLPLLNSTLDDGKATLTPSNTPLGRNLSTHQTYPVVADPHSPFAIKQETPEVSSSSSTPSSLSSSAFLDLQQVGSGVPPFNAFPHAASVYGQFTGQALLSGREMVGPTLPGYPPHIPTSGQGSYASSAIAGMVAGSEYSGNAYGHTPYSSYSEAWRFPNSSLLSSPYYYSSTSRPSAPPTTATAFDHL
# [17] = target: Voltage-dependent T-type calcium channel subunit alpha-1H (Homo sapiens, UniProt O95180); assay type: functional;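 note: channel activity triggered by adding a high calcium stimulation buffer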
# Voltage-dependent T-type calcium channel subunit alpha-1H, sequence (O95180 whole entry): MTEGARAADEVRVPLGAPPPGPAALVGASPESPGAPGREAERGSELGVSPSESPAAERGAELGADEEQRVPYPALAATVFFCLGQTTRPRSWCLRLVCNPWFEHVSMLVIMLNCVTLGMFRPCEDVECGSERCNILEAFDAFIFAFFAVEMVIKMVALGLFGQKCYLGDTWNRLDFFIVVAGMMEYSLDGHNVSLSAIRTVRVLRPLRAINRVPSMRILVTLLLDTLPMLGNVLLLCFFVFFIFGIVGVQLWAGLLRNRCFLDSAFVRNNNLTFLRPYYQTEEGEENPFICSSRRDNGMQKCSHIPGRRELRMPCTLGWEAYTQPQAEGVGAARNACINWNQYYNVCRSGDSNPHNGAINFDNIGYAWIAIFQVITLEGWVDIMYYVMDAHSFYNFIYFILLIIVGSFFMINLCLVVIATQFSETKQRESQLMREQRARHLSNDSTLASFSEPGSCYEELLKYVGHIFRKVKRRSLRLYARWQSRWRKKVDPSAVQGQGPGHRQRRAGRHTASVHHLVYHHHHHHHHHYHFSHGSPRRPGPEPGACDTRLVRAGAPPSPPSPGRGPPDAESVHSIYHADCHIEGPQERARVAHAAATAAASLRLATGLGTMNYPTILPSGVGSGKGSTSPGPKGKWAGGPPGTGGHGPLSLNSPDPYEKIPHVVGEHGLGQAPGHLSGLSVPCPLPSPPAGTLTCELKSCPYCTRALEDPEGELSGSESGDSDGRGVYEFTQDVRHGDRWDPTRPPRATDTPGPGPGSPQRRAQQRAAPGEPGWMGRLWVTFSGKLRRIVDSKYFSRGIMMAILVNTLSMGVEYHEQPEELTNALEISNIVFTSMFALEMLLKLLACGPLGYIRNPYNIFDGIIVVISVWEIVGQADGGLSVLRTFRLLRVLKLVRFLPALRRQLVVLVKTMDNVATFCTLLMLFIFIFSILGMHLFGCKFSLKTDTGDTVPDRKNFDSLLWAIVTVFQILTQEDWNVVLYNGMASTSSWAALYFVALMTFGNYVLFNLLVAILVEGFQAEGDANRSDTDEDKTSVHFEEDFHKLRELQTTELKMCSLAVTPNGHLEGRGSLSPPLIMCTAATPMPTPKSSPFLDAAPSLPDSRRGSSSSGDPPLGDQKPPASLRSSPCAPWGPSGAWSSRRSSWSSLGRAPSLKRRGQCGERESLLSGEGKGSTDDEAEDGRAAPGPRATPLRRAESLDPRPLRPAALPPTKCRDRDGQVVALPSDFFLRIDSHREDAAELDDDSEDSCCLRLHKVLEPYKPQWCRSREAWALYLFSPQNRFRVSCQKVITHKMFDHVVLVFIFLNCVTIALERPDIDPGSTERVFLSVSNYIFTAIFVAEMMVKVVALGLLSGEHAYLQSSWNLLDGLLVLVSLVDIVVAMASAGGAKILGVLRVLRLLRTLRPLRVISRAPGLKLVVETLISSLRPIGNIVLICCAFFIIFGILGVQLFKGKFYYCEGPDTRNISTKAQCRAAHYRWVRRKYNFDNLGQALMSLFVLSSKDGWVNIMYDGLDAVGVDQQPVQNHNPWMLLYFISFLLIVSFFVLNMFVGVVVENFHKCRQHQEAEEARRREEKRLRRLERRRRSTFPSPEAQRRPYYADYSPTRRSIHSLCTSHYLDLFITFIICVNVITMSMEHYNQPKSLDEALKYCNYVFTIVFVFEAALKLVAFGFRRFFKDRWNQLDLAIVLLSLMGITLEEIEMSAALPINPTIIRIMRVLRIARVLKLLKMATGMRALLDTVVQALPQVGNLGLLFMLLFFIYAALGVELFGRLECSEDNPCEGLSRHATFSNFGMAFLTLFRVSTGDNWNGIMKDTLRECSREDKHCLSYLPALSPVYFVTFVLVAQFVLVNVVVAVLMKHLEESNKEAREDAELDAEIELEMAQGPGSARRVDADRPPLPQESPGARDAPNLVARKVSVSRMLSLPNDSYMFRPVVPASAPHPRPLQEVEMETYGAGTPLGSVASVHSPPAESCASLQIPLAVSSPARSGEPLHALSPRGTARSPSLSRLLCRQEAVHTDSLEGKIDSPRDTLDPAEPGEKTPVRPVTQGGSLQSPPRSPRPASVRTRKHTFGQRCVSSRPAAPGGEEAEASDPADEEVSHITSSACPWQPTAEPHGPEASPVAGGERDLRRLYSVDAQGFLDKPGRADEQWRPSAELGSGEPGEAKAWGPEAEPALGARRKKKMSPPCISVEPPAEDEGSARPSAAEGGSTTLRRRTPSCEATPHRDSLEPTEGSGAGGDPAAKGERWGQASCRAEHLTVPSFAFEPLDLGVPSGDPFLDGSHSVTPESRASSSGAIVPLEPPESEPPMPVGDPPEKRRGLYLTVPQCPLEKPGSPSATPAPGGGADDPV
# [18] = LGR2 antagonists, dose response, cell-based, HEK293, CRE-luciferase reporter, cherry pick, set 2 (AID 743343); assay type: functional;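 note: transfected cells were stimulated with diluted bursicon conditioned medium after compound addition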
# [19] = MC4R antagonists, dose response, counter-screen for LGR2 antagonist project, cell-based, plate reader, cherry pick (AID 743444); assay type: functional;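 note: transfected HEK 293 cells stimulated with alpha-MSH peptide; potency of inhibitors of the alpha-MSH evoked signal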
# [20] = P. falciparum Dd2 growth inhibitors, dose response, SYBR Green, cherry-picked samples (AID 1159567); assay type: functional, cell-based
smiles,measurement,setting,value
COC(=O)[C@@H]1C[C@]2(OC(=O)c3ccccc3)C=CC(=O)C[C@@H]2N1C(=O)OCc1ccccc1,AC50,[1],6.36 µM (active)
same,EC50,[2],18.5 µM (active)
same,AC50,[3],14 µM (active)
same,AC50,[4],8.72 µM (active)
same,EC50,Protein RecA,10.5 µM (active)
CN(Cc1ccccc1)c1nc(N)nc(Cl)c1C=O,IC50,[5],15.1 µM (active)
Cc1cc(OCc2cc(C(=O)N(C)CCc3cnn(C)c3)no2)cc(C)c1Cl,CC50,[6],> 40 µM (active)
same,IC50,cells [7],29.6 µM (active)
Oc1ccc2ccccc2c1N=Nc1nccs1,EC50,BJ [8],1.32 µM (active)
same,EC50,cells [9],40.4 µM (active)
same,EC50,BJ [10],2.03 µM (active)
same,CC50,[6],17.8 µM (active)
same,EC50,cells [11],40.5 µM (active)
same,EC50,BJ [12],2.91 µM (active)
same,EC50,[13],10.3 µM (active)
same,AC50,[14],0.932 µM (active)
same,AC50,INS1,0.666 µM (active)
same,IC50,[15],> 66 µM (inactive)
same,IC50,[16],> 66 µM (inactive)
same,AC50,Paired box protein Pax-8,2.92 µM (active)
CCc1nnc(NS(=O)(=O)c2ccc(NC(=O)c3cccc(Br)c3)cc2)s1,IC50,[5],13.2 µM (active)
Cc1cc(C)cc(-n2c(C)c3c(C)nnc(C)c3c2C)c1,CC50,[6],> 40 µM (active)
CCCCCOc1ccc(N2C(=O)C3C4C=CC(C3C2=O)N(C)C4=O)cc1 (centres undefined),CC50,[6],> 40 µM (active)
CCc1ccccc1NC(=O)c1ccc(CN2CCC(Cc3ccccc3)CC2)cc1,EC50,[17],0.111 µM (active)
same,IC50,[5],13.8 µM (active)
O=C(CCCc1ccccc1)Nc1cccc(C(=O)O)c1,AC50,[3],4.42 µM (active)
same,AC50,[18],2.04 µM (active)
same,AC50,[19],1.91 µM (active)
CC1CCN(S(=O)(=O)c2ccc3c(c2)N(CC(=O)NCCCN2C(C)CCCC2C)C(=O)CO3)CC1 (centres undefined),IC50,[5],13.5 µM (active)
C/C(=N\NC1=NCCN1)c1ccccc1,IC50,[5],12.9 µM (active)
CO[C@@H]1CN(C)C(=O)c2cc(NC(=O)Nc3ccc(C(F)(F)F)cc3)ccc2OC[C@H](C)NC[C@@H]1C,AC50,[20],5.85 µM (active)
COc1ccc(-c2ccc3c(c2)[C@@H]2[C@@H](CCN2Cc2ccncc2)[C@@H](CO)N3)cc1,AC50,[20],8.88 µM (active)
N#C[C@@H]1[C@@H](c2ccccc2C2=CCCC2)[C@H](CO)N1C(=O)C1CC1,AC50,[20],> 36 µM (inactive)
COc1ccc2c3c(n(C)c2c1)[C@H](CO)N(C(=O)Nc1ccc(F)cc1)CC31CCN(Cc2ccccn2)CC1,AC50,[20],3.43 µM (active)
